Source: patent publication US4481203A, “Composition containing 1-(n-hexylcarbamoyl)-5-fluorouracil and uracil” (priority 1977, dated 1984)
Like-named read-outs stand apart in the source and are kept apart here.

How the values were obtained:
sarcoma 180 [1] = assay: Therapeutic effect on sarcoma 180 transplanted in mice (Table 5); assay type: in vivo, male mice of ICR strain; conditions: oral, 14400 min
Protocol: (§1) (5) The anti-cancer compositions of this invention are tested in mice by the following methods to determine acute toxicity, therapeutic effect and theapeutic index.
Tissues of sarcoma 180, 2×10^6, are subcutaneously transplanted in the back of male mice of ICR strain (6 mice in each group). […] Twenty-four hours after the transplantation and during the following seven consecutive days the suspension is orally given to the animal once every day.

AH-130 [2] = assay: Anti-cancer effect (T/C) on subcutaneously transplanted AH-130, oral administration (Table 2); assay type: in vivo, male Donryu rats
Description: (2) Determination of effects
(§2) Ascites cells (5×10^6) of AH-130, are subcutaneously transplanted in the armpit of male Donryu rats weighing about 200 g (ten rats in each group). […] Twenty-four hours after the transplantation and during the following seven consecutive days the suspension is orally given to the animal once every day at the dose listed in Table 2. On the 10th day after the transplantation, the tumor is removed from the body and weighed to calculate the average weight (T) of the tumors in the group to which the composition has been given and the corresponding weight (C) in the control group to determine the ratio T/C.

in vivo [3] = assay type: in vivo; conditions: mouse, in vivo, po, mice
Protocol: as §1
(§3) Male mice of ICR strain weighing 22±1 g are used, 5 mice in each group. […] Over the following period of three weeks the mice are checked every day for poisoning, body weight and mortality. The LD50 is determined according to the up-and-down method 3 weeks after the administration.

sarcoma 180 [4] = assay: Therapeutic index (LD50/ED50) in mice (Table 5); assay type: in vivo, male mice of ICR strain; conditions: oral
Description: The LD50 and ED50 values obtained above are used to determine the therapeutic index (LD50 /ED50).

AH-130 [5] = assay: Effects of Preparations 1 to 8 on AH-130 (Table 4); assay type: in vivo, male Donryu rats
Description: as §2
(4) Compositions formulated according to Preparations 1 to 8 given above are tested by the foregoing method for effects on AH-130.

mice = assay: in vivo; assay type: in vivo; conditions: oral, 30240 min
Protocol: as §1, §3

in vivo [6] = assay: in vivo; design: species or system male rats of Donryu strain; conditions: rat, po, Concentration of 5-fluorouracil in blood
Description: Ascites cells (5×10^6) of AH-130 are subcutaneously transplanted in the armpit portion of male rats of Donryu strain weighing about 200 g. Seven days thereafter, the rats with cancer cells weighing at least 2 g are used, five rats in each group.
Two, four and eight hours after the administration, the blood serum and cancer tissue homogenate are collected, each of which is acidified with hydrochloric acid and extracted with chloroform. The resulting aqueous layer is examined for antibiotic activity according to the thin-cup method (Media Circle, Vol. 92, p. 259, 1967) with use of Staphylococcus aureus 209P strain.

[7] = background; cited from earlier work
[8] = uracil (b)/(a) mol ratio 0, as amount of 5-fluorouracil (a)
[9] = uracil (b)/(a) mol ratio 2.5, as amount of 5-fluorouracil (a)
[10] = uracil (b)/(a) mol ratio 10, as amount of 5-fluorouracil (a)
[11] = Rattus norvegicus, po, 240 h; read-out: Anti-cancer effect (T/C)
[12] = oral, 5-fluorouracil (a) 0.5 m.mol/kg + uracil 0.2 m.mol/kg
[13] = oral, 5-fluorouracil (a) 0.5 m.mol/kg + uracil 0.5 m.mol/kg
[14] = oral, 5-fluorouracil (a) 0.5 m.mol/kg + uracil 1 m.mol/kg
[15] = oral, 5-fluorouracil (a) 0.5 m.mol/kg + uracil 0.1 m.mol/kg
[16] = Rattus norvegicus, po, 240 h, read-out: Anti-cancer effect (T/C)

Structure (SMILES) | ED50 (sarcoma 180 [1]; [8]) | ED50 (sarcoma 180 [1]; [9]) | ED50 (sarcoma 180 [1]; [10]) | response vs control in vivo at 500 µmol/kg (AH-130 [2]; [11]) | Anti-cancer effect (T/C) (AH-130 [2]; [12]) | Anti-cancer effect (T/C) (AH-130 [2]; [13]) | Anti-cancer effect (T/C) (AH-130 [2]; [14]) | LD50 at 504 h (in vivo [3]; [8]) | LD50 at 504 h (in vivo [3]; [9]) | LD50 at 504 h (in vivo [3]; [10]) | Therapeutic index (LD50/ED50) (sarcoma 180 [4]; uracil (b)/(a) mol ratio 0) | Therapeutic index (LD50/ED50) (sarcoma 180 [4]; uracil (b)/(a) mol ratio 2.5) | Therapeutic index (LD50/ED50) (sarcoma 180 [4]; uracil (b)/(a) mol ratio 10) | also measured
O=c1c(F)cn(C2CCCO2)c(=O)n1C1CCCO1 (stereo not shown) [Compound 3, 1,3-bis(2-Tetrahydrofuryl)-5-fluorouracil] | 118 mg/kg | 63 mg/kg | 27 mg/kg | 24% | 0.18 | 0.12 | 0.08 | 2220 mg/kg | 1890 mg/kg | 1160 mg/kg | 18.8 | 30.1 | 42.9 | Anti-cancer effect (control) (T/C) (AH-130 [5]; oral, Compd. 3 120 mg/kg, formulated as Preparation 2 but no uracil): 0.25; Anti-cancer effect (control) (T/C) (AH-130 [5]; oral, Compd. 3 120 mg/kg, formulated as Preparation 4 but no uracil): 0.25
O=c1[nH]c(=O)n(S(=O)(=O)c2ccccc2)cc1F [Compound 8, 1-Benzenesulfonyl-5-fluorouracil] | 234 mg/kg | 88 mg/kg | 48 mg/kg | 48% |  | 0.21 |  | 1170 mg/kg | 973 mg/kg | 427 mg/kg |  |  |  | Anti-cancer effect (T/C) (AH-130 [2]; [15]): 0.39
CCCC(=O)n1cc(F)c(=O)[nH]c1=O [Compound 10, 1-(n-Butyryl)-5-fluorouracil] | 111 mg/kg | 37 mg/kg | 28 mg/kg | 38% |  | 0.11 |  |  |  |  |  |  |  | 
O=c1[nH]cc(F)c(=O)n1C1CCCO1 (stereo not shown) [Compound 7, 3-(2-Tetrahydrofuryl)-5-fluorouracil] | 78 mg/kg | 29 mg/kg | 16 mg/kg | 20% |  | 0.06 |  | 1020 mg/kg | 687 mg/kg | 381 mg/kg | 13.1 | 23.7 | 23.8 | Anti-cancer effect (T/C) (AH-130 [2]; [15]): 0.12
CCOCn1cc(F)c(=O)[nH]c1=O [Compound 5, 1-Ethoxymethyl-5-fluorouracil] |  | 26 mg/kg | 13 mg/kg | 68% | 0.33 | 0.19 | 0.08 | 1000 mg/kg | 446 mg/kg | 191 mg/kg |  |  |  | Anti-cancer effect (control) (T/C) (AH-130 [5]; oral, Compd. 5 100 mg/kg, formulated as Preparation 5 but no uracil): 0.72
O=c1[nH]cc(F)c(=O)[nH]1 [Compound 1, 5-Fluorouracil] | 18.5 mg/kg | 8.5 mg/kg | 6.0 mg/kg |  |  |  |  |  |  | 97 mg/kg |  |  |  | response vs control in vivo at 80 µmol/kg (AH-130 [2]; [16]): 69%; Anti-cancer effect (T/C) (AH-130 [2]; oral, 5-fluorouracil (a) 0.08 m.mol/kg + uracil 0.08 m.mol/kg): 0.59; Anti-cancer effect (T/C) (AH-130 [2]; oral, 5-fluorouracil (a) 0.08 m.mol/kg + uracil 0.16 m.mol/kg): 0.32; LD50 (mice; [8]): 115 mg/kg; LD50 (mice; [9]): 115 mg/kg; concentration at 4 h (in vivo [6]): 20 ng/mL; Anti-cancer effect (control) (T/C) (AH-130 [5]; I.v., Compd. 1 10 mg/kg, formulated as Preparation 6 but no uracil): 0.66; toxicity and side effects [7]: high toxicity and marked side effects
O=c1[nH]c(=O)n(C2CCCO2)cc1F (stereo not shown) [Compound 2, 1-(2-Tetrahydrofuryl)-5-fluorouracil, reference compound] | 140 mg/kg | 20 mg/kg | 11 mg/kg | 65% | 0.23 | 0.17 | 0.06 |  |  |  |  |  |  | Anti-cancer effect (T/C) (AH-130 [2]; oral, 5-fluorouracil (a) 0.5 m.mol/kg + uracil 0.05 m.mol/kg): 0.49; Anti-cancer effect (T/C) (AH-130 [2]; [15]): 0.30; Anti-cancer effect (control) (T/C) (AH-130 [5]; I.v., Compd. 2 100 mg/kg, formulated as Preparation 7 but no uracil): 0.61; Anti-cancer effect (control) (T/C) (AH-130 [5]; oral, Compd. 2 100 mg/kg, formulated as Preparation 1 but no uracil): 0.68; Anti-cancer effect (control) (T/C) (AH-130 [5]; via anus, Compd. 2 100 mg/kg, formulated as Preparation 8 but no uracil): 0.51
Fc1cnc(OCc2ccccc2)nc1OCc1ccccc1 [Compound 12, 2,4-Dibenzyl-5-fluorouracil] | 362 mg/kg | 224 mg/kg | 163 mg/kg | 55% |  | 0.41 |  |  |  |  |  |  |  | 
CCCCCCNC(=O)n1cc(F)c(=O)[nH]c1=O [Compound 4, 1-(n-Hexylcarbamoyl)-5-fluorouracil] | 60 mg/kg | 24 mg/kg | 20 mg/kg |  | 0.21 | 0.15 | 0.12 | 1260 mg/kg | 980 mg/kg | 644 mg/kg | 21.0 | 40.8 | 32.2 | response vs control in vivo at 500 µmol/kg (AH-130 [2]; [16]): 39%; Anti-cancer effect (control) (T/C) (AH-130 [5]; oral, Compd. 4 50 mg/kg, formulated as Preparation 3 but no uracil): 0.45
CCOC(=O)n1cc(F)c(=O)[nH]c1=O [Compound 9, 1-Ethoxycarbonyl-5-fluorouracil] | 101 mg/kg | 39 mg/kg | 28 mg/kg |  |  | 0.06 |  | 332 mg/kg | 269 mg/kg | 179 mg/kg | 3.3 | 6.9 | 6.4 | response vs control in vivo at 500 µmol/kg (AH-130 [2]; [16]): 22%
CCCCn1cc(F)c(=O)[nH]c1=O [Compound 11, 1-(n-Butyl)-5-fluorouracil] | 186 mg/kg | 88 mg/kg | 49 mg/kg | 77% |  | 0.53 |  | 867 mg/kg | 723 mg/kg | 358 mg/kg | 4.7 | 8.2 | 7.3 | 
O=c1cc[nH]c(=O)[nH]1 [uracil (b), uracil] |  |  |  |  |  |  |  |  |  |  |  |  |  | effect (T/C) (AH-130 [2]; oral, uracil (b) alone 1 m.mol/kg): 0.96; anti-cancer effect of uracil itself (AH-130 [2]; uracil (b) itself): no anti-cancer effect whatever
